Patent US20250382298A1, “NITROGEN-CONTAINING COMPOUND AND USE THEREOF” (SUZHOU GENHOUSE BIO CO., LTD., priority 2022, published 2025)

Legend:
[1] = tested on: OVCAR3 cells; test: Detection of OVCAR3 cell proliferation activity by CTG method; type: cell-based; settings: CellTiter-Glo, 7 days
In short: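 OVCAR3 cells (2000/well) were exposed for 7 days to compound at 10 μM to 0.026 nM, 5-fold steps, in duplicate. Viability was read as CellTiter-Glo luminescence. A plate read on the day of compound addition served as the Max value for IC50 derivation.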

[2] = Stability test in rat liver microsomes; type: in vitro ADME, Sprague-Dawley rats; settings: rat liver microsomes 0.5 mg/mL, 1.0 μM substrate; for CLint scaled at 1 μM / half-life at 1 μM: Sprague-Dawley, pH 7.4; for CLint scaled at 1 μM: read-out: RLM 0.5 CLint(liver); for half-life at 1 μM: read-out: RLM 0.5 T½
Protocol: (§1) The phase I metabolic stability of the compounds in liver microsomes of CD-1 mice, Sprague-Dawley rats, beagle dogs, cynomolgus monkeys, and humans was assessed.
(§2) The animal and human liver microsomes used in the test system were purchased from Xenotech, Corning, or other qualified suppliers and stored in a freezer at a temperature below −60° C. prior to use.
(§3) The test samples and control compounds were separately incubated with animal and human liver microsomes at 37±1° C. for a period of incubation time up to 60 min. The samples were removed at the indicated time points, and the reaction was stopped with acetonitrile or another organic solvent containing an internal standard. After centrifugation, the resulting supernatants were assayed by the liquid chromatography-tandem mass spectrometry (LC-MS/MS) method.
(§4) 73.21 g of dipotassium hydrogen phosphate trihydrate and 10.78 g of potassium dihydrogen phosphate were dissolved in 4000 mL of ultrapure water. The solution was adjusted to pH 7.40±0.10 with 10% phosphoric acid or 1 M potassium hydroxide to make a final concentration of 100 mM.
(§5) The test sample powder was prepared into a stock solution at a certain concentration with DMSO or another organic solvent, which was then further diluted with a suitable organic solvent.
(§6) Microsomes of each species were diluted into a 2× working solution with a 100 mM potassium phosphate buffer. The final concentration of the microsomes in the reaction system was 0.5 mg/mL.
(§7) An appropriate amount of nicotinamide adenine dinucleotide phosphate (NADP) and isocitric acid (ISO) powder was weighed out, dissolved in a magnesium chloride solution, and shaken and mixed well. An appropriate amount of isocitrate dehydrogenase (IDH) was added, and the mixture was mixed well by gently turning upside down. The final concentrations in the reaction system were: 1 mM NADP, 1 mM magnesium chloride, 6 mM ISO, and 1 unit/mL IDH.
(§8) The stop solution was prepared with acetonitrile or another organic solvent containing an internal standard (tolbutamide or another suitable compound). The prepared stop solution was stored in a freezer at 2-8° C.
(§9) Incubation was performed in a 96-well plate. Eight incubation plates were prepared and designated T0, T5, T15, T30, T45, T60, Blank60, and NCF60, respectively. The first 6 plates corresponded to reaction time points of […], respectively. No test sample or control compound was added to the Blank60 plate, and samples were taken after 60 min of incubation. In the NCF60 plate, incubation was performed for 60 min using the potassium phosphate buffer instead of the NADPH regeneration system solution. Three replicates were made for samples in all conditions.
(§10) The microsomes and the test sample or control compound were mixed, and then the incubation plates Blank60, T5, T15, T30, T45, and T60 except for TO and NCF60 were placed in a 37° C. water bath for pre-incubation for about 10 min. In the incubation plate T0, a stop solution was first added, followed by addition of the NADPH regeneration system working solution, and 98 μL of the potassium phosphate buffer was added to each sample well of the incubation plate NCF60 to initiate the reaction. After the pre-incubation of the incubation plates Blank60, T5, T15, T30, T45, and T60 was completed, 98 μL of the NADPH regeneration system working solution was added to each sample well to initiate the reaction. The reaction temperature was 37±1° C., the final volume of the reaction was 200 μL, and the reaction system included 0.5 mg/mL microsomes, 1.0 μM substrate, 1 mM NADP, 6 mM ISO, and 1 unit/ml IDH.
(§11) At 5 min, 15 min, […], 45 min, and 60 min, a cold stop solution containing an internal standard was added to the reaction plate to stop the reaction.
(§12) All the reaction plates after the reaction was stopped were shaken well and centrifuged at 3220×g at 4° C. for 20 min. After the supernatant was diluted at a certain ratio, LC-MS/MS analysis was performed. […]

[3] = Stability test in mouse liver microsomes; type: in vitro ADME, CD-1 mice; settings: mouse liver microsomes 0.5 mg/mL, 1.0 μM substrate; for CLint scaled at 1 μM / half-life at 1 μM: CD-1, pH 7.4; for CLint scaled at 1 μM: read-out: MLM 0.5 CLint(liver); for half-life at 1 μM: read-out: MLM 0.5 T½
Protocol: as §1, §2, §3, §4, §5, §6, §7, §8, §9, §10, §11, §12

Compound: O=C(Nc1cc2ccccc2c(N2CCC(F)(F)CC2)n1)c1ccc(NS(=O)(=O)CCO)cc1N1CCC2(CC1)CC2 [Compound 6]
- IC50 ([1]; Homo sapiens, OVCAR-3, 168 h): 118 nM
- CLint scaled at 1 μM [2]: < 17.3 mL/min/kg
- half-life at 1 μM [2]: > 2.42 h
- CLint scaled at 1 μM [3]: < 38 mL/min/kg
- half-life at 1 μM [3]: > 2.42 h

Compound: O=C(Nc1cc2ccsc2c(N2CCC(F)(F)CC2)n1)c1ccc(NS(=O)(=O)CCO)cc1N1CCC2(CC1)CC2 [Compound 15]
- IC50 ([1]; Homo sapiens, OVCAR-3, 168 h): 24 nM
- CLint scaled at 1 μM [2]: 17.2 mL/min/kg
- half-life at 1 μM [2]: 2.42 h
- CLint scaled at 1 μM [3]: 50.6 mL/min/kg
- half-life at 1 μM [3]: 1.81 h

Compound: CS(=O)(=O)Nc1ccc(C(=O)Nc2cn3ccnc3c(N3CCC(F)(F)CC3)n2)c(N2CC3CCC(C3)C2)c1 [Compound 19]
- CLint scaled at 1 μM [2]: 27.3 mL/min/kg
- half-life at 1 μM [2]: 1.52 h
- CLint scaled at 1 μM [3]: 52.3 mL/min/kg
- half-life at 1 μM [3]: 1.75 h

Compound: O=C(Nc1cn2ccnc2c(N2CCC(F)(F)CC2)n1)c1ccc(NS(=O)(=O)CCO)cc1N1CCC2(CC1)CC2 [Compound 8]
- IC50 ([1]; Homo sapiens, OVCAR-3, 168 h): 5.8 nM
- CLint scaled at 1 μM [2]: < 17.3 mL/min/kg
- half-life at 1 μM [2]: > 2.42 h
- CLint scaled at 1 μM [3]: 219 mL/min/kg
- half-life at 1 μM [3]: 0.418 h

Compound: CS(=O)(=O)Nc1ccc(C(=O)Nc2cn3ccnc3c(N3CCC(F)(F)CC3)n2)c(N2CCC3(CC2)CC3)c1 [Compound 10]
- IC50 ([1]; Homo sapiens, OVCAR-3, 168 h): 16 nM
- CLint scaled at 1 μM [2]: 19.3 mL/min/kg
- half-life at 1 μM [2]: 2.16 h
- CLint scaled at 1 μM [3]: 182 mL/min/kg
- half-life at 1 μM [3]: 0.502 h

Compound: O=C(Nc1cn2ccnc2c(N2CCC(F)(F)CC2)n1)c1ccc(NS(=O)(=O)CCO)cc1N1CC2CCC(C2)C1 [Compound 17]
- IC50 ([1]; Homo sapiens, OVCAR-3, 168 h): 6.3 nM

Compound: O=C(Nc1cc2c(c(N3CCC(F)(F)CC3)n1)COC2)c1ccc(NS(=O)(=O)CCO)cc1N1CCC2(CC1)CC2 [Compound 14]
- IC50 ([1]; Homo sapiens, OVCAR-3, 168 h): 5.6 nM
- CLint scaled at 1 μM [2]: 34.3 mL/min/kg
- half-life at 1 μM [2]: 1.21 h
- CLint scaled at 1 μM [3]: 54.1 mL/min/kg
- half-life at 1 μM [3]: 1.69 h

Compound: CS(=O)(=O)Nc1ccc(C(=O)Nc2cc3cc[nH]c3c(N3CCC(F)(F)CC3)n2)c(N2CCC3(CC2)CC3)c1 [Compound 47]
- CLint scaled at 1 μM [2]: 9 mL/min/kg
- half-life at 1 μM [2]: 4.59 h
- CLint scaled at 1 μM [3]: 2.3 mL/min/kg
- half-life at 1 μM [3]: 40.3 h

Compound: O=C(Nc1cn2c(F)cnc2c(N2CCC(F)(F)CC2)n1)c1ccc(NS(=O)(=O)CCO)cc1N1CCC2(CC1)CC2 [Compound 34]
- CLint scaled at 1 μM [2]: 4.4 mL/min/kg
- half-life at 1 μM [2]: 9.33 h
- CLint scaled at 1 μM [3]: 14.3 mL/min/kg
- half-life at 1 μM [3]: 6.34 h

Compound: O=C(Nc1cn2ncnc2c(N2CCC(F)(F)CC2)n1)c1ccc(NS(=O)(=O)CCO)cc1N1CCC2(CC1)CC2 [Compound 23]
- IC50 ([1]; Homo sapiens, OVCAR-3, 168 h): 6.4 nM
- CLint scaled at 1 μM [2]: < 17.3 mL/min/kg
- half-life at 1 μM [2]: > 2.42 h
- CLint scaled at 1 μM [3]: < 38 mL/min/kg
- half-life at 1 μM [3]: > 2.42 h

Compound: O=C(Nc1cn2cnnc2c(N2CCC(F)(F)CC2)n1)c1ccc(NS(=O)(=O)CCO)cc1N1CCC2(CC1)CC2 [Compound 24]
- IC50 [1]: 17.8 nM
- RLM 0.5 CLint(liver) [2]: 29.5 mL/min/kg
- RLM 0.5 T½ [2]: 1.41 h
- MLM 0.5 CLint(liver) [3]: 64.7 mL/min/kg
- MLM 0.5 T½ [3]: 1.41 h

Compound: O=C(Nc1cc2cc[nH]c2c(N2CCC(F)(F)CC2)n1)c1ccc(NS(=O)(=O)CCO)cc1N1CCC2(CC1)CC2 [Compound 22]
- IC50 ([1]; Homo sapiens, OVCAR-3, 168 h): 11.2 nM

Compound: O=C(Nc1cc2cccnc2c(N2CCC(F)(F)CC2)n1)c1ccc(NS(=O)(=O)CCO)cc1N1CCC2(CC1)CC2 [Compound 21]
- CLint scaled at 1 μM [2]: < 17.3 mL/min/kg
- half-life at 1 μM [2]: > 2.42 h
- CLint scaled at 1 μM [3]: < 38 mL/min/kg
- half-life at 1 μM [3]: > 2.42 h

Compound: Cc1cc(NC(=O)c2ccc(NS(=O)(=O)CCO)cc2N2CC3CCC(C3)C2)nc(N2CCC(F)(F)CC2)n1 [Compound 3]
- IC50 ([1]; Homo sapiens, OVCAR-3, 168 h): 85 nM
